According to patent US20130072427A1, “GPR 119 MODULATORS” (Pfizer Inc., priority 2009, published 2013):
Values joined by “and” are separate entries in the source; they are usually repeats but may differ in a detail not shown here. Equal entries are not always repeated.

Legend:
[1] = target: T1, human GPR119 (Homo sapiens, UniProt Q8TDV5); experiment: cAMP functional assay (HTRF, hGPR119 HEK-CRE beta-lactamase cells); format: cell-based
T1 construct: host or cells: HEK293-CRE beta-lactamase cells
T1 sequence (Q8TDV5 1-335): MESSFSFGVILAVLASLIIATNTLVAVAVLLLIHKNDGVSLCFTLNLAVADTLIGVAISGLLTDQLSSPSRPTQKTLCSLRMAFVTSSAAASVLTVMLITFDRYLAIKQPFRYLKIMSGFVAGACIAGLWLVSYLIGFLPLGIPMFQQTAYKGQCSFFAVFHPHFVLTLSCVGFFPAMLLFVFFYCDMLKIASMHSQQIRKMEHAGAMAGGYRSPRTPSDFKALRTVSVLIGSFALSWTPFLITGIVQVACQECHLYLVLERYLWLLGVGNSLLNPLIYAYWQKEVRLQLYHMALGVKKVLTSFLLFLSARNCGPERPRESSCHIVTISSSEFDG
Description: GPR119 agonist activity was also determined with a cell-based assay utilizing an HTRF (Homogeneous Time-Resolved Fluorescence) cAMP detection kit (cAMP dynamic 2 Assay Kit; Cis Bio cat #62AM4PEC) that measures cAMP levels in the cell. The method is a competitive immunoassay between native cAMP produced by the cells and the cAMP labeled with the dye d2. The tracer binding is visualized by a Mab anti-cAMP labeled with Cryptate. The specific signal (i.e. energy transfer) is inversely proportional to the concentration of cAMP in either standard or sample.
Specifically, hGPR119HEK-CRE beta-lactamase cells (Invitrogen 2.5×10^7/ml; the same cell line used in the beta-lactamase assay described above) are removed from cryopreservation and diluted in growth medium (Dulbecco's modified Eagle medium high glucose (DMEM; Gibco Cat #11995-065), 1% charcoal dextran treated fetal bovine serum (CD serum; HyClone Cat #SH30068.03), 1×MEM Nonessential amino acids (Gibco Cat #15630-080) and 25 mM HEPES pH 7.0 (Gibco Cat #15630-080)). The cell concentration was adjusted to 1.5×10^5 cells/ml and 30 mls of this suspension was added to a T-175 flask and incubated at 37 degrees Celsius in a humidified environment in 5% carbon dioxide. After 16 hours (overnight), the cells were removed from the T-175 flask (by rapping the side of the flask), centrifuged at 800×g and then re-suspended in assay medium (1×HBSS+CaCl2+MgCl2 (Gibco Cat #14025-092) and 25 mM HEPES pH 7.0 (Gibco Cat #15630-080)). The cell concentration was adjusted to 6.25×10^5 cells/ml with assay medium and 8 μl of this cell suspension (5000 cells) was added to each well of a white Greiner 384-well, low-volume assay plate (VWR cat #82051-458).
Varying concentrations of each compound to be tested were diluted in assay buffer containing 3-isobutyl-1-methylxanthin (IBMX; Sigma cat #15879) and added to the assay plate wells in a volume of 2 microL (final IBMX concentration was 400 microM and final DMSO concentration was 0.58%). Following 30 minutes incubation at room temperature, 5 microL of labeled d2 cAMP and 5 microL of anti-cAMP antibody (both diluted 1:20 in cell lysis buffer; as described in the manufacturers assay protocol) were added to each well of the assay plate. The plates were then incubated at room temperature and after 60 minutes, changes in the HTRF signal were read with an Envision 2104 multilabel plate reader using excitation of 330 nm and emissions of 615 and 665 nm. Raw data were converted to nM cAMP by interpolation from a cAMP standard curve (as described in the manufacturer's assay protocol) and EC50 determinations were made from an agonist-response curves analyzed with a curve fitting program using a 4-paramter logistic dose response equation.

[2] = target: T1, human GPR119; experiment: Beta-lactamase functional assay (hGPR119 HEK293-CRE beta-lactamase reporter); format: cell-based
Description: The assay for GPR119 agonists utilizes a cell-based (hGPR119 HEK293-CRE beta-lactamase) reporter construct where agonist activation of human GPR119 is coupled to beta-lactamase production via a cyclic AMP response element (CRE). GPR119 activity is then measured utilizing a FRET-enabled beta-lactamase substrate, CCF4-AM (Live Blazer FRET-B/G Loading kit, Invitrogen cat #K1027). Specifically, hGPR119-HEK-CRE-beta-lactamase cells (Invitrogen 2.5×10^7/mL) were removed from liquid nitrogen storage, and diluted in plating medium (Dulbecco's modified Eagle medium high glucose (DMEM; Gibco Cat #11995-065), 10% heat inactivated fetal bovine serum (HIFBS; Sigma Cat #F4135), 1×MEM Nonessential amino acids (Gibco Cat #15630-080), 25 mM HEPES pH 7.0 (Gibco Cat #15630-080), 200 nM potassium clavulanate (Sigma Cat #P3494). The cell concentration was adjusted using cell plating medium and 50 microL of this cell suspension ([…]) was added into each well of a black, clear bottom, poly-d-lysine coated 384-well plate (Greiner Bio-One cat #781946) and incubated at 37 degrees Celsius in a humidified environment containing 5% carbon dioxide. After 4 hours the plating medium was removed and replaced with 40 microL of assay medium (Assay medium is plating medium without potassium clavulanate and HIFBS). Varying concentrations of each compound to be tested was then added in a volume of 10 microL (final DMSO≦0.5%) and the cells were incubated for 16 hours at 37 degrees Celsius in a humidified environment containing 5% carbon dioxide. Plates were removed from the incubator and allowed to equilibrate to room temperature for approximately 15 minutes. 10 microL of 6×CCF4/AM working dye solution (prepared according to instructions in the Live Blazer FRET-B/G Loading kit, Invitrogen cat #K1027) was added per well and incubated at room temperature for 2 hours in the dark. Fluorescence was measured on an EnVision fluorimetric plate reader, excitation 405 nm, emission 460 nm/535 nm. EC50 determinations were made from agonist-response curves analyzed with a curve fitting program using a 4-parameter logistic dose-response equation.

[3] = target: T1, human GPR119; experiment: GPR119 radioligand binding assay ([3H]Cmpd A, membranes of HEK 293FT cells over-expressing hGPR119); conditions: competition with 3H-Cmpd A; Ki from IC50 by Cheng-Prusoff; one line per run
Description: HEK 293FT cells (Invitrogen, Carlsbad, Calif.) were grown in a shake flask in 293Freestyle medium (Invitrogen) supplemented with 50 microg/mL neomycin and 10 mM HEPES (37 C, 8% carbon dioxide, shaking). The cells were centrifuged gently (approximately 500×g, 10 minutes) and the pellet resuspended in a mixture of Dulbecco's PBS(minus Mg++/−Ca++) supplemented with 18% fetal bovine serum (Sigma Aldrich) and P1 virus such that the multiplicity of infection (MOI) was 10 and the final cell density was 1.3×10^6/ml (total volume 2.5 liters). The cells were transferred to a 5 liter Wave Bioreactor Wavebag (Wave Technologies, MA) and incubated for 4 hours at 27 degrees Celsius (17 rocks/min, 7 degrees platform angle); at the end of the incubation period, an equal volume (2.5 liters) of 293Freestyle medium supplemented with 30 mM sodium butyrate (Sigma Aldrich) was added (final concentration=15 mM), and the cells were grown for 20 hours (37 degrees Celsius, 8% CO2 [0.2 liters/min}, 25 rocks/minute, 7 degrees platform angle). Cells were harvested via centrifugation (3,000×g, 10 minutes), washed once on DPBS (minus Ca++/Mg++), resuspended in 0.25M sucrose, 25 mM HEPES, 0.5 mM EDTA, pH 7.4 and frozen at −80 degrees Celsius.
The frozen cells were thawed on ice and centrifuged at 700×g (1400 rpm) for 10 minutes at 4 degrees Celsius. The cell pellet was resuspended in 20 ml phosphate-buffered saline, and centrifuged at 1400 rpm for 10 minutes. The cell pellet was then resuspended in homogenization buffer (10 mM HEPES (Gibco #15630), pH 7.5, 1 mM EDTA (BioSolutions, #BIO260-15), 1 mM EGTA (Sigma, #E-4378), 0.01 mg/ml benzamidine (Sigma #B 6506), 0.01 mg/ml bacitracin (Sigma #B 0125), 0.005 mg/ml leupeptin (Sigma #L 8511), 0.005 mg/ml aprotinin (Sigma #A 1153)) and incubated on ice for 10 minutes. Cells were then lysed with 15 gentle strokes of a tight-fitting glass Dounce homogenizer. The homogenate was centrifuged at 1000×g (2200 rpm) for 10 minutes at 4 degrees Celsius. The supernatant was transferred into fresh centrifuge tubes on ice. The cell pellet was resuspended in homogenization buffer, and centrifuged again at 1000×g (2200 rpm) for 10 minutes at 4 degrees Celsius after which the supernatant was removed and the pellet resuspended in homogenization buffer. This process was repeated a third time, after which the supernatants were combined, Benzonase (Novagen #71206) and MgCl2 (Fluka #63020) were added to final concentrations of 1 U/ml and 6 mM, respectively, and incubated on ice for one hour. The solution was then centrifuged at 25,000×g (15000 rpm) for 20 minutes at 4 degrees Celsius, the supernatant was discarded, and the pellet was resuspended in fresh homogenization buffer (minus Benzonase and MgCl2). After repeating the 25,000×g centrifugation step, the final membrane pellet was resuspended in homogenization buffer and frozen at −80 degrees Celsius. The protein concentration was determined using the Pierce BCA protein assay kit (Pierce reagents A #23223 and B #23224).
Test compounds were serially diluted in 100% DMSO (J. T. Baker #922401). 2 microL of each dilution was added to appropriate wells of a 96-well plate (each concentration in triplicate). Unlabeled Cmpd A, at a final concentration of 10 microM, was used to determine non-specific binding.
^3H-Cmpd A was diluted in binding buffer (50 mM Tris-HCl, pH 7.5, (Sigma #T7443), 10 mM MgCl2 (Fluka 63020), 1 mM EDTA (BioSolutions #BIO260-15), 0.15% bovine serum albumin (Sigma #A7511), 0.01 mg/mL benzamidine (Sigma #B 6506), 0.01 mg/mL bacitracin (Sigma #B 0125), 0.005 mg/mL leupeptin (Sigma #L 8511), 0.005 mg/mL aprotinin (Sigma #A 1153)) to a concentration of 60 nM, and 100 microL added to all wells of 96-well plate (Nalge Nunc #267245).
Membranes expressing GPR119 were thawed and diluted to a final concentration of 20 μg/100 microL per well in Binding Buffer, and 100 microL of diluted membranes were added to each well of 96-well plate. […]

[4] = hGPR119 HEK-CRE beta-lactamase cells, HTRF cAMP, 30 minutes, one line per run, read-out: Human cAMP Functional EC50
[5] = percent of maximal activity relative to standard GPR119 agonist (WO2005121121) at 10 μM, one line per run, read-out: Intrinsic Activity* (%) (cAMP)

Row | EC50 [1, 4] | Emax [1, 5] | EC50 ([1]; **the curve was extrapolated to 100% to calculate an EC50, read-out: Human cAMP Functional EC50 (nM), curve extrapolated to 100%) | Emax ([1]; **the curve was extrapolated to 100% to calculate an EC50, read-out: Intrinsic Activity* (%) (cAMP), curve extrapolated to 100%) | EC50 ([2]; **the curve was extrapolated to 100% to calculate an EC50, read-out: Human B-lactamase Functional EC50 (nM), curve extrapolated to 100%) | Emax ([2]; **the curve was extrapolated to 100% to calculate an EC50, read-out: Intrinsic Activity* (%) (B-lactamase), curve extrapolated to 100%) | EC50 ([2]; hGPR119 HEK293-CRE beta-lactamase cells, 16 hours incubation, one line per run, read-out: Human B-lactamase Functional EC50) | Emax ([2]; percent of maximal activity relative to standard GPR119 agonist (WO2005121121) at 10 microM, one line per run, read-out: Intrinsic Activity* (%) (B-lactamase)) | Ki [3] | Compound
1 | 18 nM | 36% | – | – | – | – | – | – | – | Cc1c(O[C@H]2CCN(C(=O)OC(C)C)C[C@H]2F)ncnc1N1Cc2cnn(C)c2C1 (racemic) [Example 13, 1-Isopropyl (3,4-cis)-3-fluoro-4-{[5-methyl-6-(1-methyl-4,6-dihydropyrrolo[3,4-c]pyrazol-5(1H)-yl)pyrimidin-4-yl]oxy}piperidine-1-carboxylate]
2 | > 10000 nM | – | 7500 nM | 100% | 9220 nM | 100% | 3850 nM | 116% | – | CC(C)OC(=O)N1CCC(Oc2cc(N3Cc4cnn(C)c4C3)ncn2)CC1 [Example 1, Isopropyl 4-{[6-(1-methyl-4,6-dihydropyrrolo[3,4-c]pyrazol-5(1H)-yl)pyrimidin-4-yl]oxy}piperidine-1-carboxylate]
3 | 118 nM | 82% | – | – | – | – | – | – | – | Cc1c(OC2CCN(C(=O)OC3(C)CC3)CC2)ncnc1N1Cc2cnn(C)c2C1 [Example 5, 1-Methylcyclopropyl 4-{[5-methyl-6-(1-methyl-4,6-dihydropyrrolo[3,4-c]pyrazol-5(1H)-yl)pyrimidin-4-yl]oxy}piperidine-1-carboxylate]
4 | 239 nM and 108 nM | – | – | – | – | – | – | – | 26 nM | Cc1c(O[C@H]2[C@@H]3COC[C@H]2CN(C(=O)OC2(C)CC2)C3)ncnc1N1Cc2cnn(C)c2C1 [Example 10, 1-Methylcyclopropyyl (9-anti)-9-{[5-methyl-6-(1-methyl-4,6-dihydropyrrolo[3,4-c]pyrazol-5(1H)-yl)pyrimidin-4-yl]oxy}-3-oxa-7-azabicyclo[3.3.1]nonane-7-carboxylate]
